Patent publication US10653664B2, “Antibacterial compositions of mono-alkyl ethers of monoanhydro-hexitols and antibacterial methods using of the same” (TEREOS STARCH & SWEETENERS, priority 2014, dated 2020)
In brackets after ≈: the same amount, converted by molar mass.

Tests used:
Assay in all cases: MIC, 96-well microplate microdilution (Example 14)
Type in all cases: cell-based
[1] = test system: L. monocytogenes (CIP 103575); settings: for MIC: Listeria monocytogenes, CIP103575, Table 5, read-out: Minimum inhibitory concentration (MIC)
Procedure: (§1) The bacteriostatic properties of the derivatives are evaluated by measuring their minimum inhibitory concentration (MIC) on the bacteria tested. These measurements are made using the 96-well microplate microdilution method according to the conditions defined below. The minimum inhibitory concentrations (MIC) are tested on Gram-positive bacterial strains according to the recommendations of the “Clinical Laboratory Standards Institute” (Clinical-Laboratory-Standards-Institute, 6th ed. Approved standard M100-S17. CLSI, Wayne, Pa., 2007). The Gram-positive bacteria studied are as follows: L. monocytogenes (CIP 103575), E. faecalis (ATCC® 29212™) and S. aureus (ATCC® 292213 ™). The cultures studied, freshly isolated (after incubation on a blood agar at 37° C. for 18 h), are taken up in sterile water (10 mL) until obtaining a 0.5 McFarland (Mc) suspension i.e. 1 to 2×10^8 CFU (bacteria)/cm^3. The bacterial suspension was then diluted to obtain a final concentration of 5×10^5 CFU/cm3. Each well contains an identical quantity of Mueller-Hinton medium (a rich medium for bacterial culture) and bacteria with final 5×10^5 CFU/cm3. The test compounds of interest are solubilized in 2.5% of ethanol before being diluted to different concentrations two by two. On the multiwell plate, a first series has been planned comprising the culture medium without the test compound of interest. It corresponds to the growth control (control well). These controls serve as reference for comparing bacterial growth with that of the subsequent wells comprising different concentrations of the test compound of interest. The second series of wells comprises the mother solution for the test compound of interest for a concentration in the wells of 4 mM. Each series of wells was diluted two by two until the last series for a final concentration of 0.003 mM. Each concentration is duplicated in the same plate. The plate is incubated for 18 h at 37° C. […] If there is antibacterial activity, the bacterial growth is inhibited, which means that no turbidity or bacterial residue is present.

E. faecalis (ATCC 29212) = settings: Enterococcus faecalis, ATCC29212, Table 5, read-out: Minimum inhibitory concentration (MIC)
Procedure: as §1

S. aureus (ATCC 292213) = settings: for MIC: Staphylococcus aureus, ATCC292213, Table 5, read-out: Minimum inhibitory concentration (MIC)
Procedure: as §1

[2] = Table 7 comparison with reference products

Row | MIC [1] [mM] | MIC (E. faecalis (ATCC 29212)) [mM] | MIC (S. aureus (ATCC 292213)) [mM] | Minimum inhibitory concentration (MIC) [1, 2] [mM] | Minimum inhibitory concentration (MIC) (S. aureus (ATCC 292213); [2]) [mM] | Structure (SMILES)
1 | > 4 | > 4 | > 4 | – | – | CCCCCOCC(O)[C@H]1OCC(O)C1O (some centres unmarked) [Entry 1, (1,4)-sorbitan pentyl ethers]
2 | > 4 | > 4 | > 4 | – | – | CCCCCCOCC(O)[C@H]1OCC(O)C1O (some centres unmarked) [Entry 2]
3 | > 4 | > 4 | > 4 | – | – | CCCCCCCCOCC(O)[C@H]1OCC(O)C1O (some centres unmarked) [Entry 3, Octyl-1,4-sorbitan]
4 | > 4 | > 4 | > 4 | – | – | CCCCCCCCCCOCC(O)[C@H]1OCC(O)C1O (some centres unmarked) [Entry 4, Decyl-1,4-sorbitan]
5 | – | – | – | 0.04 (≈ 11 µg/mL) | 0.04 (≈ 11 µg/mL) | CCCCCCCCCCCC(=O)OCC(O)CO (centres unmarked) [ML, monolaurine, reference compound]
